Results as given in patent US11731976B2, “3-(ethoxydifluoromethyl)-6-(5-fluoro-6-(2,2,2-trifluoroethoxy)pyridin-3-yl)-[1,2,4]triazolo[4,3-a]pyridine as an ion channel modulator” (Praxis Precision Medicines, Inc., priority 2018, dated 2023).

What follows are molecules tested against T1, human NaV1.6 (hNaV1.6) (Homo sapiens, UniProt Q9UQD0) (assay: Modulation of late sodium current (INaL), PatchXpress electrophysiology, HEK-293 cells expressing hNaV1.6). Conditions: HEK293, late current evoked by 300 nM ATX-II, read-out: NaV 1.6 Assay Data: percent inhibition of INaL at hNaV1.6.
T1 construct: expressed in transfected cells; host or cells: HEK-293
T1 sequence (Q9UQD0 whole entry): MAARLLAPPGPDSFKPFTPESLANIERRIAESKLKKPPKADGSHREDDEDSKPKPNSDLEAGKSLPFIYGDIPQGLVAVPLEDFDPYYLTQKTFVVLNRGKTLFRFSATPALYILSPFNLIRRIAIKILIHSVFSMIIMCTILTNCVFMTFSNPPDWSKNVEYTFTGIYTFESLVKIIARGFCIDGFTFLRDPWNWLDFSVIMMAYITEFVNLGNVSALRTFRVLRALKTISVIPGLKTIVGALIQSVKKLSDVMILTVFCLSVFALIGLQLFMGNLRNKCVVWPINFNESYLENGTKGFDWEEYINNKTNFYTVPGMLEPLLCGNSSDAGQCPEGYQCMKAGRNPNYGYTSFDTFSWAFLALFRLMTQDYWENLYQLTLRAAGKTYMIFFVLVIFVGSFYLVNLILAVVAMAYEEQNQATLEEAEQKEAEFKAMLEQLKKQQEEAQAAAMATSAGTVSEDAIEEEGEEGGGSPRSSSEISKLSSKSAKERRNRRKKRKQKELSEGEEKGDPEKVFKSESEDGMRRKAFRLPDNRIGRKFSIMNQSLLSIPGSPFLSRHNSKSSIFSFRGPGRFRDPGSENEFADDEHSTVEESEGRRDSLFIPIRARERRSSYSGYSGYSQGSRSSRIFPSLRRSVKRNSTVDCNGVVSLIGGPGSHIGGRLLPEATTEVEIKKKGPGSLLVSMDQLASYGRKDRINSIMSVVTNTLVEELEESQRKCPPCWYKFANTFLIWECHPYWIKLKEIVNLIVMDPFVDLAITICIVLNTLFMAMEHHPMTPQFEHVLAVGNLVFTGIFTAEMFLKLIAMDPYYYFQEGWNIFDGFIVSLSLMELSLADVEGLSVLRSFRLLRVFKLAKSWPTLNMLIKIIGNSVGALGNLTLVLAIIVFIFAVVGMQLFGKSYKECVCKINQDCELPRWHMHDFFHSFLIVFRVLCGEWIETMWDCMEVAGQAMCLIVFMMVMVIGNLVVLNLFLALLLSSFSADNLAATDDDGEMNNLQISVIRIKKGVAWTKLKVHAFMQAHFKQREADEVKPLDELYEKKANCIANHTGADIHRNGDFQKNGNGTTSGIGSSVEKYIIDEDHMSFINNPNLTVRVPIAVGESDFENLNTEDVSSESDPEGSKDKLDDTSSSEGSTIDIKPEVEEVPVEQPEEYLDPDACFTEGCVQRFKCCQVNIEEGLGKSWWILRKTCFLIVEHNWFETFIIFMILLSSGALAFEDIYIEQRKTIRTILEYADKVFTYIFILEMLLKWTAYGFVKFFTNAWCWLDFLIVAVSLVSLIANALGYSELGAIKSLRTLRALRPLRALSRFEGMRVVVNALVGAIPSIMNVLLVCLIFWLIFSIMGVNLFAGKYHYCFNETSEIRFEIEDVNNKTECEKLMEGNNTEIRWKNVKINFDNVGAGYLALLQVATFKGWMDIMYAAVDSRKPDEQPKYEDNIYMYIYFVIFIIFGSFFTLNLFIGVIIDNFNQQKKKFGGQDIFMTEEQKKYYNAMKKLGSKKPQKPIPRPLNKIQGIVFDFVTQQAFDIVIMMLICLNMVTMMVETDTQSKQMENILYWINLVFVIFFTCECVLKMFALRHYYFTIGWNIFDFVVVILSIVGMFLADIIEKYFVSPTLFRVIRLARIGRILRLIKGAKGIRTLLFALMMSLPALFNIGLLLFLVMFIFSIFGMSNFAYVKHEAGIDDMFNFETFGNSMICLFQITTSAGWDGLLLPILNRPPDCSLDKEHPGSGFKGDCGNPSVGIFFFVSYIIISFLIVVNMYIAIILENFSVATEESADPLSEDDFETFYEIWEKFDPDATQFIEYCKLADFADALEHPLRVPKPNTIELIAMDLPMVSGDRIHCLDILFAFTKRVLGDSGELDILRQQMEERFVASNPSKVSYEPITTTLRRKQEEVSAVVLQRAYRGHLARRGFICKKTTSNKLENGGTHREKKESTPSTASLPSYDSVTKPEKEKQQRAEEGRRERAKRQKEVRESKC
Type: cell-based
Method: Functional characterization of exemplary compounds to modulate INaL expressed by the NaV1.6 voltage-gated sodium channel was accomplished using the PatchXpress™ high throughput electrophysiology platform (Molecular Devices, Sunnyvale, Calif.). HEK-293 cells expressing recombinant, human NaV1.6 (hNaV1.6) were grown in DMEM/high-glucose Dulbecco's modified, 10% FBS, 2 mM sodium pyruvate, 10 mM HEPES and 400 μg/mL G418. Cells were grown to 50%-80% confluency prior to harvesting. Trypsinized cells were washed, allowed to recover for 1 hour and then resuspended in extracellular recording solution at a concentration of 1×10^6 cells/ml. The onboard liquid handling facility of the PatchXpress was used for dispensing cells and applying test compounds. NaV late currents were evoked by the application of 300 nM ATX-II. INaL was evoked by depolarizing pulses to 0 mV for 200 ms from a non-inactivating holding potential (e.g., −120 mV) at a frequency of 0.1 Hz. INaL amplitude and stability were determined by analyzing the mean current amplitude over the final 20 ms of the test pulse. Following steady state block with exemplary compounds (e.g., as described herein), a Na+ free solution containing an impermeant cation (e.g., Choline or NDMG) was added to confirm the identify of the sodium current. Percent steady-state inhibition of INaL was calculated as: [(INaL_compound)/(INaL_control)]*100, where INaL_compound and INaL_control represent INaL recorded in the presence or absence of compound, respectively.

`CCOC(F)(F)c1nnc2ccc(-c3cnc(O[C@H](C)C(F)(F)F)c(F)c3)cn12` [Compound 34, 3-[ethoxy(difluoro)methyl]-6-[5-fluoro-6-[(1R)-2,2,2-trifluoro-1-methyl-ethoxy]-3-pyridyl]-[1,2,4]triazolo[4,3-a]pyridine] and `C[C@@H](Oc1ncc(-c2ccc3nnc(C(F)(F)OC4CC4)n3c2)cc1F)C(F)(F)F` [Compound 36, 3-[cyclopropoxy(difluoro)methyl]-6-[5-fluoro-6-[(1R)-2,2,2-trifluoro-1-methyl-ethoxy]-3-pyridyl]-[1,2,4]triazolo[4,3-a]pyridine] cannot be ordered by inhibition at 1 µM: > 70% for the first, > 70% for the second.

First: COCc1nnc2ccc(-c3cnc(OCC(F)(F)F)c(F)c3)nn12 [Compound 35, 6-[5-fluoro-6-(2,2,2-trifluoroethoxy)-3-pyridyl]-3-(methoxymethyl)-[1,2,4]triazolo[4,3-b]pyridazine]
Second: COCc1nnc2ccc(-c3cnc(O[C@@H](C)C(F)(F)F)c(F)c3)nn12 [Compound 44, 6-[5-fluoro-6-[(1S)-2,2,2-trifluoro-1-methyl-ethoxy]-3-pyridyl]-3-(methoxymethyl)-[1,2,4]triazolo[4,3-b]pyridazine]
The inhibition at 1 µM of the first is lower: < 30% for the first, 30 to 70% for the second.

`C[C@H](Oc1ncc(-c2ccc3nnc(C(F)(F)OC4CC4)n3c2)cc1F)C(F)(F)F` [Compound 37, 3-[cyclopropoxy(difluoro)methyl]-6-[5-fluoro-6-[(1S)-2,2,2-trifluoro-1-methyl-ethoxy]-3-pyridyl]-[1,2,4]triazolo[4,3-a]pyridine] and `C[C@@H](Oc1ncc(-c2cn3c(C(F)(F)OC4CC4)nnc3cn2)cc1F)C(F)(F)F` [Compound 51, 3-[cyclopropoxy(difluoro)methyl]-6-[5-fluoro-6-[(1R)-2,2,2-trifluoro-1-methyl-ethoxy]-3-pyridyl]-[1,2,4]triazolo[4,3-a]pyrazine] cannot be ordered by inhibition at 1 µM: > 70% for the first, > 70% for the second.

Compared with `COCc1nnc2cnc(-c3cnc(O[C@@H](C)C(F)(F)F)c(F)c3)cn12` [Compound 38, 6-[5-fluoro-6-[(1S)-2,2,2-trifluoro-1-methyl-ethoxy]-3-pyridyl]-3-(methoxymethyl)-[1,2,4]triazolo[4,3-a]pyrazine], `CCOCc1nnc2cnc(-c3cnc(O[C@@H](C)C(F)(F)F)c(F)c3)cn12` [Compound 50, 3-(ethoxymethyl)-6-[5-fluoro-6-[(1S)-2,2,2-trifluoro-1-methyl-ethoxy]-3-pyridyl]-[1,2,4]triazolo[4,3-a]pyrazine] is higher in inhibition at 1 µM: 30 to 70% for the first, > 70% for the second.

First: COCc1nnc2cnc(-c3cnc(OCC(F)(F)F)c(F)c3)cn12 [Compound 39, 6-[5-fluoro-6-(2,2,2-trifluoroethoxy)-3-pyridyl]-3-(methoxymethyl)-[1,2,4]triazolo[4,3-a]pyrazine]
Second: CCOCc1nnc2cnc(-c3cnc(O[C@H](C)C(F)(F)F)c(F)c3)cn12 [Compound 52, 3-(ethoxymethyl)-6-[5-fluoro-6-[(1R)-2,2,2-trifluoro-1-methyl-ethoxy]-3-pyridyl]-[1,2,4]triazolo[4,3-a]pyrazine]
The inhibition at 1 µM of the first is lower: < 30% for the first, 30 to 70% for the second.

First: COCc1nnc2ccc(-c3cnc(O[C@H](C)C(F)(F)F)c(F)c3)cn12 [Compound 40, 6-[5-fluoro-6-[(1R)-2,2,2-trifluoro-1-methyl-ethoxy]-3-pyridyl]-3-(methoxymethyl)-[1,2,4]triazolo[4,3-a]pyridine]
Second: COCc1nnc2ccc(-c3cnc(O[C@@H](C)C(F)(F)F)c(F)c3)cn12 [Compound 43, 6-[5-fluoro-6-[(1S)-2,2,2-trifluoro-1-methyl-ethoxy]-3-pyridyl]-3-(methoxymethyl)-[1,2,4]triazolo[4,3-a]pyridine]
The inhibition at 1 µM of the first is lower: < 30% for the first, 30 to 70% for the second.

`CCOC(F)(F)c1nnc2ccc(-c3cnc(O[C@@H](C)C(F)(F)F)c(F)c3)nn12` [Compound 41, 3-[ethoxy(difluoro)methyl]-6-[5-fluoro-6-[(1S)-2,2,2-trifluoro-1-methyl-ethoxy]-3-pyridyl]-[1,2,4]triazolo[4,3-b]pyridazine] and `CCOC(F)(F)c1nnc2ccc(-c3cnc(O[C@H](C)C(F)(F)F)c(F)c3)nn12` [Compound 42, 3-[ethoxy(difluoro)methyl]-6-[5-fluoro-6-[(1R)-2,2,2-trifluoro-1-methyl-ethoxy]-3-pyridyl]-[1,2,4]triazolo[4,3-b]pyridazine] cannot be ordered by inhibition at 1 µM: > 70% for the first, > 70% for the second.

`CC(C)COC(F)(F)c1nnc2cnc(-c3cnc(O[C@@H](C)C(F)(F)F)c(F)c3)cn12` [Compound 45, 3-[difluoro(isobutoxy)methyl]-6-[5-fluoro-6-[(1S)-2,2,2-trifluoro-1-methyl-ethoxy]-3-pyridyl]-[1,2,4]triazolo[4,3-a]pyrazine] and `CC(C)COC(F)(F)c1nnc2ccc(-c3cnc(O[C@@H](C)C(F)(F)F)c(F)c3)nn12` [Compound 47, 3-[difluoro(isobutoxy)methyl]-6-[5-fluoro-6-[(1S)-2,2,2-trifluoro-1-methyl-ethoxy]-3-pyridyl]-[1,2,4]triazolo[4,3-b]pyridazine] cannot be ordered by inhibition at 1 µM: > 70% for the first, > 70% for the second.

First: COCc1nnc2ccc(-c3cnc(O[C@H](C)C(F)(F)F)c(F)c3)nn12 [Compound 46, 6-[5-fluoro-6-[(1R)-2,2,2-trifluoro-1-methyl-ethoxy]-3-pyridyl]-3-(methoxymethyl)-[1,2,4]triazolo[4,3-b]pyridazine]
Second: CC(C)COC(F)(F)c1nnc2ccc(-c3cnc(O[C@H](C)C(F)(F)F)c(F)c3)nn12 [Compound 49, 3-[difluoro(isobutoxy)methyl]-6-[5-fluoro-6-[(1R)-2,2,2-trifluoro-1-methyl-ethoxy]-3-pyridyl]-[1,2,4]triazolo[4,3-b]pyridazine]
The inhibition at 1 µM of the first is lower: 30 to 70% for the first, > 70% for the second.

`COC(F)(F)c1nnc2cnc(-c3ccc(OC4(C(F)(F)F)CCC4)nc3)cn12` [Compound 57] and `C[C@H](Oc1ncc(-c2cn3c(C(F)(F)OC4CC4)nnc3cn2)cc1F)C(F)(F)F` [Compound 63, 3-[cyclopropoxy(difluoro)methyl]-6-[5-fluoro-6-[(1S)-2,2,2-trifluoro-1-methyl-ethoxy]-3-pyridyl]-[1,2,4]triazolo[4,3-a]pyrazine] cannot be ordered by inhibition at 1 µM: > 70% for the first, > 70% for the second.

First: COC(F)(F)c1nnc2cnc(-c3cnc(O[C@@H](C)C(F)(F)F)c(F)c3)c(C)n12 [Compound 58, 3-[difluoro(methoxy)methyl]-6-[5-fluoro-6-[(1S)-2,2,2-trifluoro-1-methyl-ethoxy]-3-pyridyl]-5-methyl-[1,2,4]triazolo[4,3-a]pyrazine]
Second: COC(F)(F)c1nnc2cnc(-c3cnc(O[C@H](C)C(F)(F)F)c(F)c3)c(C)n12 [Compound 60, 3-[difluoro(methoxy)methyl]-6-[5-fluoro-6-[(1R)-2,2,2-trifluoro-1-methyl-ethoxy]-3-pyridyl]-5-methyl-[1,2,4]triazolo[4,3-a]pyrazine]
The inhibition at 1 µM of the first is higher: > 70% for the first, 30 to 70% for the second.

First: COC(F)(F)c1nnc2cnc(-c3cnc(OCC(F)(F)F)c(F)c3)c(C)n12 [Compound 61, 3-[difluoro(methoxy)methyl]-6-[5-fluoro-6-(2,2,2-trifluoroethoxy)-3-pyridyl]-5-methyl-[1,2,4]triazolo[4,3-a]pyrazine]
Second: CCOC(F)(F)c1nnc2cnc(-c3cnc(OCc4ccccc4)c(F)c3)cn12 [Compound 64, 6-(6-benzyloxy-5-fluoro-3-pyridyl)-3-[ethoxy(difluoro)methyl]-[1,2,4]triazolo[4,3-a]pyrazine]
The inhibition at 1 µM of the first is lower: 30 to 70% for the first, > 70% for the second.
